Laboratory results as given in ChEMBL document CHEMBL1143295, “Discovery of potent inhibitors of interleukin-2 inducible T-cell kinase (ITK) through structure-based drug design” (Bioorg Med Chem Lett, 2009).

Assays:
Insulin receptor = Insulin receptor (Homo sapiens, UniProt P06213); assay: Inhibition of IRK
[1] = target: T1, Tyrosine-protein kinase ITK/TSK (Homo sapiens, UniProt Q08881); assay: Inhibition of ITK by DELFIA method
T1 sequence (Q08881 whole entry): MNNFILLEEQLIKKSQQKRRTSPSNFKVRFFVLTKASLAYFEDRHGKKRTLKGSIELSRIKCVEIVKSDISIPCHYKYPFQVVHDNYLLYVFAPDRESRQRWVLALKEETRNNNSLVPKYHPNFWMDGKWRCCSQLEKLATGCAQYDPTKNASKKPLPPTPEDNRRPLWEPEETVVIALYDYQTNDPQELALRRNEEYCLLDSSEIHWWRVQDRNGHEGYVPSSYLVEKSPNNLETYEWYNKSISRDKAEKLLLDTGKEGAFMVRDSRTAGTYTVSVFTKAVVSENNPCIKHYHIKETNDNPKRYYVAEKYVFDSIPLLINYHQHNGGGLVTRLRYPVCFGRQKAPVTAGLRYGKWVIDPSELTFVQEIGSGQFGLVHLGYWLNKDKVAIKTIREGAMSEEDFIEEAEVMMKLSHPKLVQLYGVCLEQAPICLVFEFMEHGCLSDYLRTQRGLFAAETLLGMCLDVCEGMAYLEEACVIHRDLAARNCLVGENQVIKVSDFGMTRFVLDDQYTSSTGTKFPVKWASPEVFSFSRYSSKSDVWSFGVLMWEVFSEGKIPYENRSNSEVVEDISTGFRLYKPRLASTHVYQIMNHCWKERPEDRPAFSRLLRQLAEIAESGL

[2] = target: T1, Tyrosine-protein kinase ITK/TSK; assay: Inhibition of human ITK expressed in chicken DT40 cells assessed as calcium influx by FLIPR; assay type: cell-based
[3] = Selectivity ratio of IC50 for IRK to IC50 for ITK

Chain of Insulin receptor (P06213 28-758 limits assumed): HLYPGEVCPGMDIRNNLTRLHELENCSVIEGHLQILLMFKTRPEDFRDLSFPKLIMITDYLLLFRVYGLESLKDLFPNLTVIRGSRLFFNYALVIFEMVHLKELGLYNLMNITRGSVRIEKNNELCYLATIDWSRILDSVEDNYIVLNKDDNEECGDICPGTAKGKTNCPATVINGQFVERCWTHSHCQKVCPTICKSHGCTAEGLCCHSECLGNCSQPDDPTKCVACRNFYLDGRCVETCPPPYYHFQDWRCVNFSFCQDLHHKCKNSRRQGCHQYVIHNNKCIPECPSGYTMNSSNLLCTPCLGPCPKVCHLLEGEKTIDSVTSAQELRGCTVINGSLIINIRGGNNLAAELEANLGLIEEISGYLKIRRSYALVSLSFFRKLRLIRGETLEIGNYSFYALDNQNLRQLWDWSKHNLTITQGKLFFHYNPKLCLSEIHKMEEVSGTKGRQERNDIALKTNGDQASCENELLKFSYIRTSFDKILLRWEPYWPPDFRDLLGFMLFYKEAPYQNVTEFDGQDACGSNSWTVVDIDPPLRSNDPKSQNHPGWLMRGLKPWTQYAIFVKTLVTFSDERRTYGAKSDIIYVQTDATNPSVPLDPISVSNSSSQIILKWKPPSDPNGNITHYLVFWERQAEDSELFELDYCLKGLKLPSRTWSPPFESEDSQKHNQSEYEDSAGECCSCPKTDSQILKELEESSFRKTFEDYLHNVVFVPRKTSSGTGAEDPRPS
Chain of Insulin receptor (P06213 763-1382 limits assumed): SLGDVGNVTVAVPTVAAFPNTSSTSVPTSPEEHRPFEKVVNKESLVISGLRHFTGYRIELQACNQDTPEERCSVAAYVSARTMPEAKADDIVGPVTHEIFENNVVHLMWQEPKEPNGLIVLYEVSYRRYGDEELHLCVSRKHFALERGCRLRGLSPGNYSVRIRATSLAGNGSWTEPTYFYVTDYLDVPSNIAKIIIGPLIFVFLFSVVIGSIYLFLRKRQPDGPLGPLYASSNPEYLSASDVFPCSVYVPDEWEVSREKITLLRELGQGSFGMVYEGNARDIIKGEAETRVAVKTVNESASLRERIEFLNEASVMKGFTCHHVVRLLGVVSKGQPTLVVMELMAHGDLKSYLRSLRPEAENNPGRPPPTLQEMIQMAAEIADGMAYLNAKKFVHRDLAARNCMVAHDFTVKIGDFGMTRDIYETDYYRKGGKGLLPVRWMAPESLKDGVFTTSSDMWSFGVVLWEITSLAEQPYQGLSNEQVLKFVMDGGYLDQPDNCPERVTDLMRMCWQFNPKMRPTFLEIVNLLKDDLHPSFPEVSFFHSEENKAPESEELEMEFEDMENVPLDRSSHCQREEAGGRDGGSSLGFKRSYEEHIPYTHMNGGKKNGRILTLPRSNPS

Row | SMILES | IC50 (Insulin receptor) | IC50 [1] | IC50 [2] | Ratio IC50 [3]
1 | CN(C(=O)c1ccccc1)c1ccc2c(c1)nc(NC(=O)c1ccc(Br)cc1)n2CCC(N)=O | > 6 µM |  |  | 
2 | CN(C(=O)c1ccccc1)c1ccc2c(c1)nc(NC(=O)c1ccc(N3CCNCC3)s1)n2CCC(N)=O | > 6 µM | 0.15 µM | > 3.2 µM | 
3 | CN(C(=O)c1ccccc1)c1ccc2c(c1)nc(NC(=O)c1ccsc1)n2CCC(N)=O | 0.24 µM |  |  | 
4 | CN(C(=O)c1ccccc1)c1ccc2c(c1)[nH]/c(=N\C(=O)c1cccc3ccccc13)n2CCC(N)=O | 5.8 µM |  |  | 
5 | CN(C(=O)c1ccccc1)c1ccc2c(c1)[nH]/c(=N\C(=O)c1ncco1)n2CCC(N)=O | > 6 µM |  |  | 
6 | CN(C(=O)c1ccccc1)c1ccc2c(c1)nc(NC(=O)c1ccc3ccccc3c1)n2CCC(N)=O | > 6 µM |  |  | 
7 | CN(C(=O)c1ccccc1)c1ccc2c(c1)[nH]/c(=N\C(=O)c1ccc(-c3cnccn3)s1)n2CCC(N)=O | > 6 µM |  |  | 
8 | CN(C(=O)c1ccccc1)c1ccc2c(c1)nc(NC(=O)c1ccc(-c3cocn3)s1)n2CCC(N)=O | > 6 µM |  |  | 
9 | CN(C(=O)c1ccccc1)c1ccc2c(c1)nc(NC(=O)c1ccc(-c3nccs3)s1)n2CCC(N)=O | > 6 µM |  |  | 
10 | CN(C(=O)c1ccccc1)c1ccc2c(c1)[nH]/c(=N\C(=O)c1ccc(-c3ccccc3)cc1)n2CCC(N)=O | > 6 µM |  |  | 
11 | CN(C(=O)c1ccccc1)c1ccc2c(c1)[nH]/c(=N\C(=O)c1cncs1)n2CCC(N)=O | 1.6 µM | 0.13 µM | > 5 µM | 
12 | CN(C(=O)c1ccccc1)c1ccc2c(c1)nc(NC(=O)c1ccno1)n2CCC(N)=O | > 6 µM |  |  | 
13 | CN(C(=O)c1ccccc1)c1ccc2c(c1)[nH]/c(=N\C(=O)c1ccc(N3CCCCC3)s1)n2CCC(N)=O | > 6 µM |  |  | 
14 | CN(C(=O)c1ccccc1)c1ccc2c(c1)[nH]/c(=N\C(=O)c1cocn1)n2CCC(N)=O |  |  |  | > 1000
15 | CN(C(=O)c1ccccc1)c1ccc2c(c1)nc(NC(=O)c1cocn1)n2CCC(N)=O | > 6 µM | 0.17 µM | > 5 µM | 
16 | CC(=O)c1ccc(C(=O)Nc2nc3cc(N(C)C(=O)c4ccccc4)ccc3n2CCC(N)=O)s1 | > 6 µM |  |  | 
17 | CN(C(=O)c1ccccc1)c1ccc2c(c1)[nH]/c(=N\C(=O)c1ccc(-c3cccnc3)s1)n2CCC(N)=O | > 6 µM |  |  | 
18 | CC(C)C(=O)c1ccc(C(=O)Nc2nc3cc(N(C)C(=O)c4ccccc4)ccc3n2CCC(N)=O)s1 | > 6 µM |  |  | 
19 | CN(C(=O)c1ccccc1)c1ccc2c(c1)[nH]/c(=N\C(=O)c1ccc(-c3ccc(C#N)nc3)s1)n2CCC(N)=O | > 6 µM |  |  | 
20 | CN(C(=O)c1ccccc1)c1ccc2c(c1)[nH]/c(=N\C(=O)c1ccc(-c3csc(N)n3)s1)n2CCC(N)=O | > 6 µM |  |  | 

Row | SMILES | IC50 (Insulin receptor) | IC50 [1] | IC50 [2] | Ratio IC50 [3]
21 | CN(C(=O)c1ccccc1)c1ccc2c(c1)[nH]/c(=N\C(=O)c1ccc(-c3cncc(C#N)c3)s1)n2CCC(N)=O | > 6 µM |  |  | 
22 | CN(C(=O)c1ccccc1)c1ccc2c(c1)[nH]/c(=N\C(=O)c1ccc(-c3ncco3)s1)n2CCC(N)=O | > 6 µM |  |  | 
23 | CN(C(=O)c1ccccc1)c1ccc2c(c1)[nH]/c(=N\C(=O)c1cccc(-c3ccccc3)c1)n2CCC(N)=O | > 6 µM |  |  | 
24 | CN(C(=O)c1ccccc1)c1ccc2c(c1)[nH]/c(=N\C(=O)c1ccc(-c3ccccn3)s1)n2CCC(N)=O | > 6 µM |  |  | 
25 | CN(C(=O)c1ccccc1)c1ccc2c(c1)nc(NC(=O)c1ccc(C(=O)c3ccccc3)s1)n2CCC(N)=O | > 6 µM |  |  | 
26 | CN(C(=O)c1ccccc1)c1ccc2c(c1)nc(NC(=O)c1cscn1)n2CCC(N)=O | 6.1 µM | 0.34 µM | > 5 µM | 
27 | CN(C(=O)c1ccccc1)c1ccc2c(c1)nc(NC(=O)c1ccc(-c3ccnc(C#N)c3)s1)n2CCC(N)=O | > 6 µM |  |  | 
28 | CN(C(=O)c1ccccc1)c1ccc2c(c1)nc(NC(=O)c1ccc(-c3ccnc(F)c3)s1)n2CCC(N)=O | > 6 µM |  |  | 
29 | CN(C(=O)c1ccccc1)c1ccc2c(c1)nc(NC(=O)c1ccc(C#N)cc1)n2CCC(N)=O | > 6 µM |  |  | 
30 | CN(C(=O)c1ccccc1)c1ccc2c(c1)[nH]/c(=N\C(=O)c1ccc(-c3ccncc3)s1)n2CCC(N)=O | > 6 µM |  |  | 
31 | COc1ccc(C(=O)Nc2nc3cc(N(C)C(=O)c4ccccc4)ccc3n2CCC(N)=O)cc1 | > 6 µM | 0.17 µM | > 5 µM | 
32 | CN(C(=O)c1ccccc1)c1ccc2c(c1)nc(NC(=O)c1ccc(OCc3ccccc3)s1)n2CCC(N)=O | > 6 µM |  |  | 
33 | CN(C(=O)c1ccccc1)c1ccc2c(c1)nc(NC(=O)c1ccc(-c3ccc(F)nc3)s1)n2CCC(N)=O | > 6 µM |  |  | 
34 | CN(C(=O)c1ccccc1)c1ccc2c(c1)nc(NC(=O)c1ccc(Oc3ccccc3)s1)n2CCC(N)=O | > 6 µM |  |  | 
35 | CN(C(=O)c1ccccc1)c1ccc2c(c1)nc(NC(=O)c1ccc(Br)s1)n2CCC(N)=O | 0.63 µM | 0.015 µM | 0.1 µM | 
36 | CN(C(=O)c1ccccc1)c1ccc2c(c1)nc(NC(=O)c1ccc(N3CCOCC3)s1)n2CCC(N)=O | > 6 µM | 0.074 µM | > 3.2 µM | 
37 | CN(C(=O)c1ccccc1)c1ccc2c(c1)[nH]/c(=N\C(=O)c1ccc(-c3ccccc3)s1)n2CCC(N)=O | > 6 µM |  |  | 
38 | CN(C(=O)c1ccccc1)c1ccc2c(c1)[nH]/c(=N\C(=O)c1cnco1)n2CCC(N)=O | > 6 µM | 0.18 µM | > 5 µM | > 1000
39 | CN(C(=O)c1ccccc1)c1ccc2c(c1)[nH]/c(=N\C(=O)c1ccc(N3CCCC3)s1)n2CCC(N)=O | > 6 µM |  |  | 
